What was measured:
[1] = system: MMP1 expression by activated primary synovial fibroblasts; assay: 'MMP assay': MMP1 expression by complex trigger activated synovial fibroblasts (MMP1 ELISA); assay type: cell-based; conditions: Homo sapiens, Fibroblast; Table 3; RASFs, complex trigger, 48 hrs, MMP1 ELISA
[2] = system: TNFα release by human PBMCs; assay: Cytokine release by LPS stimulated human PBMCs (TNFα ELISA); assay type: cell-based; conditions: PBMC, 24 h, Table 5, LPS 1 μg/mL
Experimental: For the assay PBMCs are seeded at 2.5E6 cells/mL in 160 μL in 96-well plates (Nunc). Serial dilution of the test compounds are made first in DMSO (Sigma) and then diluted 50-fold in M199 medium (Gibco) containing 1% heat-inactivated FBS. Compounds are further 1/10 diluted in the assay plates to obtain final DMSO concentration of 0.2%. Cells are preincubated with the compounds for 1 hr at 37° C., 5% CO2. Then, cells are stimulated with LPS (Escherichia coli serotype 026:B6, Cat. No. L2654, Sigma) that is added in a volume of 20 μL to a final concentration of 1 μg/mL and cells are further cultured for 24 hr. The plates are centrifuged and the supernatant is collected and stored at −80° C. until analysis of appropriate dilutions in ELISAs.
After 4 hr incubation at RT, blocking buffer is removed and plates are washed once with PBST (1×PBS with 0.05% Tween-20 (Sigma)). Then, 40 μL of sample is transferred to the ELISA plates and plates are incubated at 4° C. […] After 2 h of incubation at RT, plates are washed as described above and 35 μL/well of a 1/2000 dilution of streptavidin-HRP conjugate (Cat. No. SNN2004, Biosource) in buffer D is added. After 45 min, plates are washed as described above and incubated for 5 min with 50 μL/well BM Chemiluminescence ELISA Substrate POD (Roche). Readout is performed on the Luminoscan Ascent Luminometer (Labsystems) with an integration time of 100 msec delivering raw data (RLU: relative luminescence units). The following controls are included in the experiments, a maximal signal control, in which the cells are activated by LPS but only the 0.2% DMSO vehicle (and thus no compound) is added. […] A minimal signal control is also included in these experiments. Here, cells are not triggered. […] Where compounds are tested at 8 concentrations (1/3 serial dilution), EC50-values can be calculated by curve fitting of the means of the PIN data achieved for a compound at each test concentration.

MAPKAPK5 = molecular target: T1, MAPKAPK5 (Homo sapiens, UniProt Q8IW41); assay: MAPKAP-K5 assay (FlashPlate kinase assay)
T1 sequence (Q8IW41 1-471 isoform Q8IW41-2): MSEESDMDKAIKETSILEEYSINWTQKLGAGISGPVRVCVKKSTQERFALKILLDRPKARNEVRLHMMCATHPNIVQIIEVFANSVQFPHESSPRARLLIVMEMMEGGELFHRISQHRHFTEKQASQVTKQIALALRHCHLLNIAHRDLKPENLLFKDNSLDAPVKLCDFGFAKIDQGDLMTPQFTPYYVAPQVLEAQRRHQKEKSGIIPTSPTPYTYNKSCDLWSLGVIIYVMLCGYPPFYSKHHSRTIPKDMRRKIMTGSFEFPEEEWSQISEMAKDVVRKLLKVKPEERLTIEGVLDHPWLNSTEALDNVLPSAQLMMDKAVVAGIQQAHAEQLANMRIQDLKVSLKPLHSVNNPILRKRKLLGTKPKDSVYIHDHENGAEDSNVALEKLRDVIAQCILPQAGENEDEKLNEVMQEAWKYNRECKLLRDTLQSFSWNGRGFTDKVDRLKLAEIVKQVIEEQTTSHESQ

Compound | EC50 [1] | EC50 [2] | IC50 (MAPKAPK5)
NC(=O)c1ccc(-c2cnc(Nc3ccc(OCCN4CCOCC4)cc3)c3ncnn23)s1 [Compound 22, 5-(8-(4-(2-Morpholinoethoxy)phenylamino)-[1,2,4]triazolo[1,5-a]pyrazin-5-yl)thiophene-2-carboxamide] | > 1 µM | > 1 µM | 0.501 to 1 µM
Fc1cc(Nc2ncc(-c3cn[nH]c3)n3ncnc23)ccc1N1CCOCC1 [Compound 17, (3-Fluoro-4-morpholinophenyl)-5-(1H-pyrazol-4-yl)-[1,2,4]triazolo[1,5-a]pyrazin-8-amine] | > 1 µM | > 1 µM | > 1 µM
CC(C)N1CCN(c2ncc(Nc3ncc(-c4ccc5c(c4)CNC5=O)n4ncnc34)cn2)CC1 [Compound 101] | > 1 µM | > 1 µM | 0.101 to 0.5 µM
c1nc2c(Nc3ccc(N4CCOCC4)cc3)ncc(-c3ccc4nonc4c3)n2n1 [Compound 72] | > 1 µM | > 1 µM | > 1 µM
Clc1cc(N2CCOCC2)ccc1Nc1ncc(-c2cn[nH]c2)n2ncnc12 [Compound 68] | > 1 µM | > 1 µM | > 1 µM
O=C1NCc2cc(-c3cnc(Nc4ccc(F)cc4F)c4ncnn34)ccc21 [Compound 174] | > 1 µM | > 1 µM | > 1 µM
CC(C)N1CCC(c2ccc(Nc3ncc(-c4ccc5c(c4)CNC5=O)n4ncnc34)cc2)CC1 [Compound 92, 5-{8-[4-(1-Isopropylpiperidin-4-yl)phenylamino]-[1,2,4]triazolo[1,5-a]pyrazin-5-yl}-2,3-dihydroisoindol-1-one] | 0.101 to 0.5 µM | > 1 µM | 0.001 to 0.1 µM
CNCc1cc(Nc2ncc(-c3cn[nH]c3)n3ncnc23)ccc1N1CCOCC1 [Compound 110] | > 1 µM | > 1 µM | > 1 µM
O=C1NCc2cc(-c3cnc(Nc4ccc(OCCN5CCOCC5)cc4)c4ncnn34)ccc21 [Compound 65, 5-(8-(4-(2-Morpholinoethoxy)phenylamino)-[1,2,4]triazolo[1,5-a]pyrazin-5-yl)isoindolin-1-one] | 0.101 to 0.5 µM | > 1 µM | 0.101 to 0.5 µM
c1nc2c(Nc3ccc(N4CCN(CC5CC5)CC4)nc3)ncc(-c3cn[nH]c3)n2n1 [Compound 42, [6-(4-[Cyclopropylmethyl]piperazin-1-yl)pyridin-3-yl]-[5-(1H-pyrazol-4-yl)-[1,2,4]triazolo[1,5-a]pyrazin-8-yl]amine] | > 1 µM | > 1 µM | > 1 µM
CC(C)N1CCN(c2ccc(Nc3ncc(-c4cn[nH]c4)n4ncnc34)cc2C(F)(F)F)CC1 [Compound 171, [4-(4-Isopropylpiperazin-1-yl)-3-trifluoromethylphenyl]-[5-(1H-pyrazol-4-yl)-[1,2,4]triazolo[1,5-a]pyrazin-8-yl]amine] | > 1 µM | 0.501 to 1 µM | > 1 µM
CC(C)N1CCN(c2ccc(Nc3ncc(-c4csc5ccccc45)n4ncnc34)cc2)CC1 [Compound 49] | > 1 µM | > 1 µM | > 1 µM
CNCc1cc(Nc2ncc(-c3ccc4c(c3)CNC4=O)n3ncnc23)ccc1N1CCOCC1 [Compound 179] | > 1 µM | > 1 µM | 0.101 to 0.5 µM
NC(=O)c1cc(-c2cnc(Nc3ccc(N4CCOCC4)nc3)c3ncnn23)co1 [Compound 94] | > 1 µM | > 1 µM | 0.001 to 0.1 µM
CN1CCN(c2ccc(Nc3ncc(-c4ccc(C(N)=O)c(F)c4)n4ncnc34)cc2)CC1 [Compound 7] | > 1 µM | > 1 µM | > 1 µM
O=C1CCC(c2ccc(-c3cnc(Nc4ccc(N5CCOCC5)cc4)c4ncnn34)cc2)=NN1 [Compound 71] | > 1 µM | > 1 µM | > 1 µM

Compound | EC50 [1] | EC50 [2] | IC50 (MAPKAPK5)
CC(C)(C)N1CCN(c2ccc(Nc3ncc(-c4cn[nH]c4)n4ncnc34)cc2)CC1 [Compound 103] | 0.501 to 1 µM | 0.101 to 0.5 µM | 0.501 to 1 µM
CC(C)(C)N1CCN(c2ccc(Nc3ncc(-c4ccc5c(c4)CNC5=O)n4ncnc34)cc2)CC1 [Compound 102, 5-{8-[4-(4-tert-Butyl-piperazin-1-yl)-phenylamino]-[1,2,4]triazolo[1,5-a]pyrazin-5-yl}-2,3-dihydro-isoindol-1-one] | > 1 µM | > 1 µM | 0.001 to 0.1 µM
O=C1NCc2cc(-c3cnc(Nc4ccc(N5CCOCC5)cc4Cl)c4ncnn34)ccc21 [Compound 76] | 0.501 to 1 µM | > 1 µM | > 1 µM
CC(=O)c1ccc(-c2cnc(Nc3ccc(N4CCOCC4)cc3)c3ncnn23)s1 [Compound 69] | > 1 µM | > 1 µM | > 1 µM
CC(C)N1CCC(c2ccc(Nc3ncc(-c4cn[nH]c4)n4ncnc34)cc2)CC1 [Compound 84, [4-(1-Isopropylpiperidin-4-yl)phenyl]-[5-(1H-pyrazol-4-yl)-[1,2,4]triazolo[1,5-a]pyrazin-8-yl]amine] | > 1 µM | > 1 µM | 0.501 to 1 µM
C[C@@H]1CN(c2ccc(Nc3ncc(-c4csc(C(N)=O)c4)n4ncnc34)cc2)C[C@H](C)O1 [Compound 24] | 0.101 to 0.5 µM | > 1 µM | 0.501 to 1 µM
C[C@@H]1CN(c2ccc(Nc3ncc(-c4csc(C(N)=O)c4)n4ncnc34)cc2)[C@@H](C)CN1C [Compound 32] | 0.501 to 1 µM | 0.501 to 1 µM | 0.101 to 0.5 µM
CC(C)N1CCN(c2ccc(Nc3ncc(-c4cc(C(N)=O)co4)n4ncnc34)cc2)CC1 [Compound 30] | > 1 µM | > 1 µM | > 1 µM
O=C1NCc2cc(-c3cnc(Nc4ccc(N5CCOCC5)nc4)c4ncnn34)ccc21 [Compound 87] | 0.101 to 0.5 µM | > 1 µM | 0.001 to 0.1 µM
c1nc2c(Nc3ccc(N4CCN(C5CC5)CC4)cc3)ncc(-c3cn[nH]c3)n2n1 [Compound 59, [4-(4-Cyclopropylpiperazin-1-yl)phenyl]-[5-(1H-pyrazol-4-yl)-[1,2,4]triazolo[1,5-a]pyrazin-8-yl]amine] | > 1 µM | > 1 µM | > 1 µM
NC(=O)c1ccc(-c2cnc(Nc3ccc(N4CCOCC4)cc3)c3ncnn23)c(F)c1 [Compound 10] | 0.501 to 1 µM | > 1 µM | > 1 µM
NC(=O)c1cc(-c2cnc(Nc3ccc(OCCN4CCOCC4)cc3)c3ncnn23)cs1 [Compound 21, 4-(8-(4-(2-Morpholinoethoxy)phenylamino)-[1,2,4]triazolo[1,5-a]pyrazin-5-yl)thiophene-2-carboxamide] | 0.101 to 0.5 µM | > 1 µM | 0.101 to 0.5 µM
CC(C)N1CCN(c2ccc(Nc3ncc(-c4coc(C(N)=O)c4)n4ncnc34)cn2)CC1 [Compound 86, 4-(8-(6-(4-Isopropylpiperazin-1-yl)pyridin-3-ylamino)-[1,2,4]triazolo[1,5-a]pyrazin-5-yl)furan-2-carboxamide] | > 1 µM | > 1 µM | 0.001 to 0.1 µM
NC(=O)c1cc(-c2cnc(Nc3ccc(N4CCN(CC5CC5)CC4)cc3)c3ncnn23)cs1 [Compound 58, 4-{8-[4-(4-(Cyclopropylmethyl)piperazin-1-yl)-phenylamino]-[1,2,4]triazolo[1,5-a]pyrazin-5-yl}thiophene-2-carboxylic acid amide] | 0.101 to 0.5 µM | > 1 µM | 0.101 to 0.5 µM
NC(=O)c1coc(-c2cnc(Nc3ccc(N4CCOCC4)cc3)c3ncnn23)c1 [Compound 29, 5-(8-(4-Morpholinophenylamino)-[1,2,4]triazolo[1,5-a]pyrazin-5-yl)furan-3-carboxamide] | > 1 µM | > 1 µM | > 1 µM
NC(=O)c1ccc(-c2cnc(Nc3ccc(N4CCOCC4)cc3)c3ncnn23)cc1 [Compound 5] | 0.101 to 0.5 µM | > 1 µM | > 1 µM

Source: patent publication US20100298300A1, “TRIAZOLOPYRAZINE COMPOUNDS USEFUL FOR THE TREATMENT OF DEGENERATIVE & INFLAMMATORY DISEASES” (priority 2006, published 2010)
